We go through 20 compounds from patent US8153649B2, “3-aminoimidazo 1,2-A pyridine derivatives having an SGLT1- and SGLT2-inhibiting action for the treatment of type 1 and type 2 diabetes” (Merck Patent Gesellschaft mit beschrankter Haftung, priority 2006, dated 2012).

Each structure is given as a SMILES string.

One assay has as its target T1, SGLT1 (Homo sapiens, UniProt P13866).
T1 construct: expressed in transfected cells
T1 sequence (P13866 1-664): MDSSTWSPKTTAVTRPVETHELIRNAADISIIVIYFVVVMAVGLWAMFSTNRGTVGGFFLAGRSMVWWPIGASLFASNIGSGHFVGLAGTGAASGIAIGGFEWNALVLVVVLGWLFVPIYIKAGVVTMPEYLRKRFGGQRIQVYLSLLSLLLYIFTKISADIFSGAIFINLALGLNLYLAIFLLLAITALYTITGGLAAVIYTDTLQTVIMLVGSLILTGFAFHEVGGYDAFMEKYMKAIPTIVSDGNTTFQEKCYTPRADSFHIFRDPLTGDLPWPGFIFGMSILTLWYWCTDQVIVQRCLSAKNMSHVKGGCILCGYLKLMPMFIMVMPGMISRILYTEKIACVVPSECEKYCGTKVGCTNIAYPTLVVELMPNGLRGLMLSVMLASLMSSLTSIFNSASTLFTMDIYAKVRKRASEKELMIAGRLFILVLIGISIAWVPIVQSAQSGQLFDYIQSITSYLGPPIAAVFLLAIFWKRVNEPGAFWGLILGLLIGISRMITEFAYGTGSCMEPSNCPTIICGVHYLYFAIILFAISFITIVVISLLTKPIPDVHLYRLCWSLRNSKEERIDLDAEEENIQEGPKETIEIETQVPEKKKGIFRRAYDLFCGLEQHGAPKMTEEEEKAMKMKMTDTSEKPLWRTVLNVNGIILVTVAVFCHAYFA
Put plainly: 14C-AMG uptake in BHK cells transfected with SGLT1. It is filed as cell-based. Particulars: 37° C., 90 min. From the text: (§1) The compounds can be tested on their SGLT inhibition properties by means of BHK cells expressing SGLT1 and SGLT2. The production of the cells and the testing can be carried out as described below.
To construct the SGLT1 expression vector (KL225), the SLC5A1 gene (homologous to NM_000343) was amplified from a cDNA library using standard PCR technology and cloned over NheI/XhoI sites into the cDNA3.1 expression vector (Invitrogen) containing neomycin as a selection marker. In this vector, transcription uses the enhancer/promoter of human cytomegalovirus.
The final vector KL225 together with an additional vector containing a dihydrofolate reductase gene as a selection marker was introduced into cells. Transfection into BHK21 cells (ATCC CCL-10), cultivated in DMEM medium (GIBCO/BRL), supplemented with 10% foetal calf serum (FCS) and 20 mM glutamine, was carried out using calcium phosphate transfections according to Graham, F. L. and van der Ebb, A. J. (1973), Virology 52: 456 with 5-20 μg of uncut plasmids for 10^7 cells. Stable transfectants were selected in medium containing 1 mg/ml of G418 (GIBCO/BRL) and 20-5000 nM methotrexate as final concentration, where only cells which expressed the neomycin gene and overexpressed the dhfr gene were able to grow. After growth for 2-3 weeks, the cells were cloned (0.5 cells/well) and the clones were investigated for SGLT expression in the radioactivity uptake test. […]
(§2) A 96-well cell-based assay was developed and adapted to HIS requirements:
(§3) BHK cells (transfected with SGLT1 or SGLT2) were seeded into 96-well microtitre plates (Cultureplates, Perkin Elmer). After at least 24 h, medium was removed and the cell layer was washed with assay buffer (140 mM NaCl, 2 mM KCl, 1 mM CaCl2, 1 mM MgCl2, 10 mM HEPES, 5 mM Tris, adjusted with 1 M KOH to pH 7.4), After addition of 40 μl of assay buffer, 50 μl of AMG ([…] for SGLT1 and 2 mM for SGLT2) in the presence or absence of compounds, the cells were incubated in a total volume of 100 μl at 37° C. for 90 min. Supernatant was removed by suction and discarded. The cells were washed and lysed by addition of 50 μl of water. After 10 min at room temperature, 200 μl of Microscint 40 (Perkin Elmer) were added. The radioactivity was counted in a Topcount microplate scintillation counter (Perkin Elmer). The non-specific uptake was determined in sodium-free assay buffer (266 mM sucrose, 2 mM KCl, 1 mM CaCl2, 1 mM MgCl2, 10 mM HEPES, 5 mM Tris, adjusted to pH 7.4 using 1 M KOH).

Another assay concerns the target T2, SGLT2 (Homo sapiens, UniProt P31639).
T2 construct: expressed in transfected cells
T2 sequence (P31639 1-672): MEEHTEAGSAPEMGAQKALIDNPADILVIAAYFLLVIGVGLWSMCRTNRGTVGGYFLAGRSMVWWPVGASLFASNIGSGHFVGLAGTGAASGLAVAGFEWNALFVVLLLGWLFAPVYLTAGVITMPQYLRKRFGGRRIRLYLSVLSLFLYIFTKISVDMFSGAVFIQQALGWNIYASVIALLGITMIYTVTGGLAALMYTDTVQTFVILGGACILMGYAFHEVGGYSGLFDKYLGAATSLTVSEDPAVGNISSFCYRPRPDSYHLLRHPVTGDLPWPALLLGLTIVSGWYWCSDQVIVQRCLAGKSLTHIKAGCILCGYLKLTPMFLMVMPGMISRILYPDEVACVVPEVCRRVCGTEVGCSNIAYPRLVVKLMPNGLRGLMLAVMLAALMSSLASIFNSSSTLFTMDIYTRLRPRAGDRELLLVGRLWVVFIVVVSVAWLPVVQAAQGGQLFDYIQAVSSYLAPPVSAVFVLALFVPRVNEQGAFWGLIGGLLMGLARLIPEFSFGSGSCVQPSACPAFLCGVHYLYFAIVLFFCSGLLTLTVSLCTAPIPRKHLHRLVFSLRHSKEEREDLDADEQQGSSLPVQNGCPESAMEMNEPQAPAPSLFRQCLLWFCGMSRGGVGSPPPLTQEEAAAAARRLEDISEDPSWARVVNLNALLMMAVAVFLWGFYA
As to the kind of experiment: 14C-AMG uptake in BHK cells transfected with SGLT2. It is filed as cell-based. Particulars: 37° C., 90 min.
From the text: as §1
To construct the SGLT2 expression vector (KL224), the SLC5A2 gene (homologous to NM_003041) was amplified from a cDNA library using standard PCR technology and cloned over NheI/XhoI sites into PCI-neo expression vector (Promega) containing neomycin as a selection marker. In this vector, transcription uses the enhancer/promoter of human cytomegalovirus and the SV40 polyadenylation signal.
The final vector KL224 together with an additional vector containing a dihydrofolate reductase gene as a selection marker was introduced into cells. Transfection into BHK21 cells (ATCC CCL-10), cultivated in DMEM medium (GIBCO/BRL), supplemented with 10% foetal calf serum (FCS) and 20 mM glutamine, was carried out using calcium phosphate transfections according to Graham, F. L. and van der Ebb, A. J. (1973), Virology 52: 456 with 5-20 μg of uncut plasmids for 10^7 cells. Stable transfectants were selected in medium containing 1 mg/ml of G418 (GIBCO/BRL) and 20-5000 nM methotrexate as final concentration, where only cells which expressed the neomycin gene and overexpressed the dhfr gene were able to grow. After growth for 2-3 weeks, the cells were cloned (0.5 cells/well) and the clones were investigated for SGLT expression in the radioactive uptake test,
The uptake of ^14C-α-methyl-D-glucopyranoside (AMG) in, for example, Xenopus oocytes injected with the corresponding cRNA has been described in principle (for example Wen-Sen Lee et al. (1994), J. Biol. Chem. 269, 12032-12039; Guofeng You et al. (1995), J. Biol. Chem. 270, 29365-29371).
as §2, §3

With `Cc1cccc(C)c1Nc1c(-c2ccccc2-c2nccs2)nc2ccc(F)cn12` [Compound A1, (2,6-dimethylphenyl)-[6-fluoro-2-(2-thiazol-2-ylphenyl)-imidazo[1,2-a]pyridin-3-yl]amine], the concentration for half-maximal inhibition (IC50) against SGLT1 and at SGLT2 was above 10000 nM each time.
In the case of `Cc1cccc(C)c1Nc1c(-c2ccccc2-c2cccc(C(=O)O)c2)nc2ccccn12` [Compound A2, 2′-[3-(2,6-Dimethylphenylamino)imidazo [1,2-a]pyridin-2-yl]biphenyl-3-carboxylic acid], the IC50 against SGLT1 and against SGLT2 was above 10000 nM each time.
With `Cc1cccc(C)c1Nc1c(-c2ccccc2-c2cccs2)nc2ccc(F)cn12` [Compound A3], the values for the IC50 against SGLT1 and against SGLT2 were above 10000 nM and 1000 to 10000 nM, respectively.
On to `Cc1cccc(C)c1Nc1c(-c2ccccc2-c2cccc(C(N)=O)c2)nc2ccccn12` [Compound A4], for which the IC50 at SGLT1 and against SGLT2 was 1000 to 10000 nM each time.
For the compound `Cc1cccc(C)c1Nc1c(-c2c(-n3cccn3)cccc2-n2cccn2)nc2ccc(F)cn12` [Compound A5, (2,6-Dimethylphenyl)-[2-(2,6-dipyrazol-1-yl-phenyl)-6-fluoroimidazo[1,2-a]pyridin-3-yl]-amine], the IC50 against SGLT1 and against SGLT2 was 1000 to 10000 nM throughout.
As for `Cc1cccc(C)c1Nc1c(-c2ccccc2-n2cccn2)nc2ccc(F)cn12` [Compound A6], the IC50 (commonly the concentration needed to halve the response being measured) on SGLT1 is above 10000 nM; on SGLT2, 1000 to 10000 nM.
On to `Cc1cccc(C)c1Nc1c(-c2ccccc2-c2ccc(C(N)=O)o2)nc2ccc(F)cn12` [Compound A7], for which the half-inhibitory concentration (IC50) on SGLT1 and against SGLT2 was 1000 to 10000 nM each time.
Consider `Cc1cccc(C)c1Nc1c(-c2ccccc2-c2ccc([N+](=O)[O-])s2)nc2ccc(F)cn12` [Compound A8], for which the IC50 on SGLT1 and at SGLT2 was 1000 to 10000 nM in each case.
For `Cc1cccc(C)c1Nc1c(-c2ccccc2-c2cncnc2)nc2ccccn12` [Compound A9], the IC50 against SGLT1 is 1000 to 10000 nM; at SGLT2, 10 to 1000 nM.
Turning to `Cc1nc(-c2ccccc2-c2nc3ccc(F)cn3c2Nc2c(C)cccc2C)no1` [Compound A10], the figures for the IC50 against SGLT1 and on SGLT2 were 1000 to 10000 nM and 10 to 1000 nM, respectively.
For `Cc1cccc(C)c1Nc1c(-c2ccccc2-c2cccnc2)nc2ccc(F)cn12` [Compound A11], the IC50 fell in the range of 1000 to 10000 nM against SGLT1 and 10 to 1000 nM against SGLT2.
Regarding `Cc1cccc(C)c1Nc1c(-c2ccccc2-c2nnc(N)o2)nc2ccc(F)cn12` [Compound B1, {2-[2-(5-amino-1,3,4-oxadiazol-2-yl)phenyl]-6-fluoroimidazo[1,2-a]pyridin-3-yl}-(2,6-dimethylphenyl)amine], the figures for the IC50 at SGLT1 and against SGLT2 were above 10000 nM and 10 to 1000 nM, respectively.
For `Cc1cccc(C)c1Nc1c(-c2c(Cl)cccc2-c2nnc(N)o2)nc2ccc(F)cn12` [Compound B2], the IC50 against SGLT1 is above 10000 nM; on SGLT2, 10 to 1000 nM.
Turning to `CNc1nnc(-c2ccccc2-c2nc3ccc(F)cn3c2Nc2c(C)cccc2C)o1` [Compound C1, (2,6-dimethylphenyl)-{6-fluoro-2-[2-(5-methylamino-1,3,4-oxadiazol-2-yl)phenyl]imidazo[1,2-a]pyridin-3-yl}amine], the IC50 at SGLT1 lay in the range of 1000 to 10000 nM; at SGLT2, 10 to 1000 nM.
Take `CNc1nnc(-c2cc(O)c(O)cc2-c2nc3ccc(F)cn3c2Nc2c(C)cc(F)cc2C)o1` [Compound C2]: the IC50 against SGLT1 was above 10000 nM; at SGLT2, 1000 to 10000 nM.
Take `CNc1nnc(-c2cc(OC)c(OC)cc2-c2nc3ccc(F)cn3c2Nc2c(C)cc(F)cc2C)o1` [Compound C3]: the IC50 against SGLT1 was above 10000 nM; against SGLT2, 1000 to 10000 nM.
For the compound `Cc1cccc(C)c1Nc1c(-c2ccccc2-c2nnc(N(C)C)o2)nc2ccc(F)cn12` [Compound C4], the IC50 was 1000 to 10000 nM at SGLT1 and 10 to 1000 nM against SGLT2.
With `CCNc1nnc(-c2ccccc2-c2nc3ccc(F)cn3c2Nc2c(C)cccc2C)o1` [Compound C5], the half-inhibitory concentration (IC50) on SGLT1 fell in the range of 1000 to 10000 nM; on SGLT2, 10 to 1000 nM.
As for `CNc1nnc(-c2c(-c3nc4ccc(F)cn4c3Nc3c(C)cccc3C)c3ccccc3n2C)o1` [Compound C12, (2,6-Dimethylphenyl)-{6-fluoro-2-[1-methyl-2-(5-methylamino-1,3,4-oxadiazol-2-yl)-1H-indol-3-yl]imidazo[1,2-a]pyridin-3-yl}amine], the IC50 at SGLT1 lay within 1000 to 10000 nM; on SGLT2, 10 to 1000 nM.
In the case of `CNc1nnc(-c2sc3ccccc3c2-c2nc3ccc(F)cn3c2Nc2c(C)cccc2C)o1` [Compound C13, (2,6-Dimethylpheny1)-{6-fluoro-2-[2-(5-methylamino-1,3,4-oxadiazol-2-y1)-benzo[b]thiophen-3-yl]imidazo[1,2-a]pyridin-3-yl}amine], the IC50 against SGLT1 and against SGLT2 was 10 to 1000 nM throughout.
